We go through two compounds from patent publication US20240252576A1, “Application Method of Radix Paeoniae Alba and Dendrobium Officinale for Preparing Drug for Treatment of Hypertension” (Hangzhou Danhe Pharmaceutical Co., Ltd., priority 2018, published 2024).

For data set [1], the system named is adult sitting and lying blood pressure. The note with it: adult daily dosage of 150-300 mg, cited from earlier work.
For data set [2] the test system is unchanged. The data set is described as follows: Clinical test data on the instructions of Irbesartan (Aprovel). The following applies: 150-300 mg daily for adults. The format is in vivo, human.
In data set [3] the test system is hereditary hypertension rats (SHR). In words: Experiment 2: hypotensive effect of the sample of the Embodiment 1 on SHR, tail arterial blood pressure. The note with it: 15 mg/Kg body weight. The format is in vivo, rat. The source says:
Rats: old age (over 48 weeks old) hereditary hypertension rats (SHR) and the normal controls were Wistar rats. Rat blood pressure measurement: BP-98 A type non-invasive tail arterial blood pressure measuring instrument, Softron Co., Ltd. (Japan). 1. Grouping treatment: All rats were adaptively fed for a week, measured with blood pressure and weight, and set into groups. SHR rats were grouped: sample of the Embodiment 1 (alcohol-water dual-extraction of Radix Paeoniae Alba with Dendrobium Officinale powder added)-large dosage group for the dosage of 3.5 g/kg body weight, sample of the Embodiment 1-medium dosage group for the dosage of 1.4 g/kg body weight, sample of the Embodiment 1-small dosage group for the dosage of 0.35 g/kg body weight, Dendrobium Officinale powder for the dosage of raw medicine of 0.8 g/kg body weight (which is the same as the raw medicine amount of the Dendrobium Officinale powder (0.8 g/kg body weight) contained in 1.4 g/Kg body weight of the sample of the Embodiment 1), alcohol-water dual-extraction of Radix Paeoniae Alba for the dosage of raw medicine of 0.6 g/kg body weight (which is the same as the raw medicine amount of the Radix Paeoniae Alba (0.6 g/kg body weight) contained in 1.4 g/Kg body weight of the sample of the Embodiment 1); utilizing gastric infusion; hypertension model control group receives equal amount of physiological saline; Irbesartan control group receives 15 mg/Kg body weight of Irbesartan; and normal control group receives equal amount of physiological saline. Each group has 8 rats. The treatment last for 3 weeks (multiple of 3-12 weeks of treatments are performed, the results can be repeated, and typical experimental results are reported below). 2. Blood pressure measurement: The Rats were pre-heated to 38° C. for 5-10 mins to avoid less blood flow of the tail that affects the pressure measurement. Three measurements are continuously carried out as the rat was in an awake and quiet state. The average value of the 3 measurements was considered as the blood pressure of the rat.

Data set [4] has the same test system. The data set is described as follows: Experiment 1: hypotensive effect of alcohol-water dual-extraction of Radix Paeoniae Alba on SHR, tail arterial blood pressure. It is filed as in vivo, rat. The note with it: 15 mg/Kg body weight. The source says:
Rats: old age (over 48 weeks old) hereditary hypertension rats (SHR) and the normal controls were Wistar rats. Rat blood pressure measurement: BP-98 A type non-invasive tail arterial blood pressure measuring instrument, Softron Co., Ltd. (Japan). Grouping treatment: All rats were adaptively fed for a week, measured with blood pressure and weight, and set into groups. SHR rats were divided into alcohol-water dual-extraction of Radix Paeoniae Alba large dosage group for the dosage of 3.2 g/kg body weight, alcohol-water dual-extraction of Radix Paeoniae Alba medium dosage group for the dosage of 0.8 g/kg body weight, alcohol-water dual-extraction of Radix Paeoniae Alba small dosage group for the dosage of 0.2 g/kg body weight, alcohol extraction of Radix Paeoniae Alba group for the dosage of 0.8 g/kg body weight, water extraction of Radix Paeoniae Alba group for the dosage of 0.8 g/kg body weight, Radix Paeoniae Alba powder group for the dosage of 0.8 g/kg body weight; utilizing gastric infusion; hypertension model control group receives equal amount of physiological saline; Irbesartan control group receives 15 mg/Kg body weight of Irbesartan; and normal control group receives equal amount of physiological saline. Each group has 8 rats. The treatment last for 3 weeks (multiple of 3-12 weeks of treatments are performed, the results can be repeated, and typical experimental results are reported below). Blood pressure measurement: The Rats were pre-heated to 38° C. for 5-10 mins to avoid less blood flow of the tail that affects the pressure measurement. Three measurements are continuously carried out as the rat was in an awake and quiet state. The average value of the 3 measurements was considered as the blood pressure of the rat.

A further data set deals with normal Wistar rat. The data set is described as follows: Experiment 3: blood pressure effect of the sample of the Embodiment 1 on normal rats. It is filed as in vivo. The following applies: 5 mg medicine/kg body weight; for diastolic pressure / systolic pressure: normal Wistar rats. The protocol: Rat: 12 Weeks Old Normal Wistar Rat.
Rat blood pressure measurement: BP-98 A type non-invasive tail arterial blood pressure measuring instrument, Softron Co., Ltd. (Japan).
Grouping treatment: All rats were adaptively fed for a week, measured with blood pressure and weight, and set into groups. […] Ten rats for each group, treating for 2 weeks.
Blood pressure measurement: The Rats were pre-heated to 38° C. for 5-10 mins to avoid less blood flow of the tail that affects the pressure measurement. Three measurements are continuously carried out as the rat was in an awake and quiet state. The average value of the 3 measurements was considered as the blood pressure of the rat. The blood pressure is measured prior to the treatment and 2 hours after each administration every week.

Setting [5] is: sitting and lying blood pressure.
Setting [6] is: Treat 3 weeks, 24 hrs, 15 mg/kg.
Setting [7] is: Treated for 1 Week, 2 hours after administration.
[8] abbreviates: Treated for 2 Weeks, 2 hours after administration.
Setting [9] is: Treated for 3 Weeks, 2 hours after administration.

In the case of `CCCCC1=NC2(CCCC2)C(=O)N1Cc1ccc(-c2ccccc2-c2nnn[nH]2)cc1` [Irbesartan], in data set [1], the “ratio of the hypotensive valley and peak” value is recorded as 60-80%. In addition, the “average hypotensive valley value, diastolic” value in data set [1] (setting [5]) was 5-8 mmHg. For the same compound, the “average hypotensive valley value, systolic” value in data set [1] (setting [5]) is recorded as 8-13 mmHg. Besides, the “hypotensive extent in the hypotensive peak, diastolic pressure” value in data set [2] (calculated from intermediate values 6.5 mmHg/0.7) was 9.29 mmHg. Further, the “hypotensive extent in the hypotensive peak, systolic pressure” value in data set [2] (calculated from intermediate values 10.5 mmHg/0.7) was 15.00 mmHg. Further, the diastolic pressure in data set [3] (Before Treatment) is listed as 166.7 ± 4.21 ^ mmHg; in data set [3] (Treat 1 time, 2 hrs), 150.1 ± 3.25 mmHg; in data set [3] (Treat 1 time, 24 hrs) it was 156.6 ± 3.57^Δ mmHg; in data set [3] (Treat 1 week, 2 hrs), 149.7 ± 2.36 mmHg; in data set [3] (Treat 1 week, 24 hrs), 155.3 ± 2.36 mmHg; in data set [3] (Treat 2 weeks, 2 hrs), 147.4 ± 3.46 mmHg. The diastolic pressure is 156.2 ± 3.25 mmHg in data set [3] (Treat 2 weeks, 24 hrs); 149.5±3.24 mmHg in data set [3] (Treat 3 weeks, 2 hrs, 15 mg/kg); 154.1±2.08 mmHg in data set [3] (setting [6]); 166.7 ± 4.21 ^ mmHg in data set [4] (Before Treatment); 155.2 ± 3.25 mmHg in data set [4] (First Treated); 150.8 ± 2.89 mmHg in data set [4] (setting [7]). Further, the diastolic pressure in data set [4] (setting [8]) came out at 151.8 ± 2.71 mmHg; in data set [4] (setting [9]), 152.9 ± 2.89 mmHg. Further, the systolic pressure in data set [3] (Before Treatment) is reported as 215.3 ± 5.87 ^ mmHg; in data set [3] (Treat 1 time, 2 hrs), 182.4 ± 3.89 mmHg; in data set [3] (Treat 1 time, 24 hrs), 198.7 ± 3.61 mmHg; in data set [3] (Treat 1 week, 2 hrs) it was 181.2 ± 3.34 mmHg; in data set [3] (Treat 1 week, 24 hrs) it was 197.8 ± 2.87 mmHg; in data set [3] (Treat 2 weeks, 2 hrs) it was 177.5 ± 2.23 mmHg. Moreover, the systolic pressure in data set [3] (Treat 2 weeks, 24 hrs) is given as 199.9 ± 2.36 mmHg; in data set [3] (Treat 3 weeks, 2 hrs, 15 mg/kg), 178.9±3.87 mmHg; in data set [3] (setting [6]), 198.7±2.24 mmHg; in data set [4] (Before Treatment), 215.2 ± 4.45 ^ mmHg; in data set [4] (First Treated), 181.6 ± 3.12 mmHg; in data set [4] (setting [7]), 180.4 ± 3.56 mmHg. Further, the figures for the systolic pressure in data set [4] (setting [8]) and in data set [4] (setting [9]) were 178.6 ± 2.04 mmHg and 177.8 ± 2.12 mmHg, respectively.

On to `CCOC(=O)C1=C(COCCN)NC(C)=C(C(=O)OC)C1c1ccccc1Cl` (stereo not shown) [Norvasc, amlodipine besylate], for which the “hypotensive effect to the normal blood pressure rats” value in the data set on normal Wistar rat is “triggered relatively great hypotensive effect”. The diastolic pressure in the data set on normal Wistar rat (Before Treatment) is 99.2 ± 4.87 mmHg; with normal Wistar rat (setting [7]) it was 71.8 ± 3.76 mmHg; in the data set on normal Wistar rat (setting [8]) it was 74.5±2.76 mmHg. In addition, the figures for the systolic pressure in the data set on normal Wistar rat (Before Treatment), in the data set with normal Wistar rat (setting [7]) and in the data set with normal Wistar rat (setting [8]) were 137.6 ± 5.46 mmHg, 95.7 ± 4.69 mmHg and 99.2±5.75 mmHg, respectively.
